Source: PMC10095708, “Discovery of Novel STING Inhibitors Based on the Structure of the Mouse STING Agonist DMXAA” (Molecules, 2023)
Where “and” joins values, the source holds several entries; their conditions need not be identical. Identical values can stand only once.

Experiments:
[1] = target: T1, hSTING-WT (Homo sapiens, UniProt Q86WV6, H232R); test: HTRF STING competition binding (cGAMP displacement) assay, hSTING-WT; details: for IC50: HTRF displacement assay, means from at least three repeated experiments; for binding to hSTING-WT in displacement assay, in words: concentrations up to 100 μM
T1 construct: purchased Cisbio
Procedure: (§1) Mouse STING binding kits, human STING WT binding kits, human AQ STING binding kits, human H232 STING binding kits were purchased from Cisbio. […] QUANTI-Blue solution, QUANTI-Luc, 2′,3′-cGAMP were purchased from Invivogen. […] CellTiter-Glo luminescent cell viability assay kit was obtained from Promega.
(§2) According to the instructions of STING binding kits, the following solutions were successively added to each well in the 384-well plate: 5 μL of the detection compounds or 2′,3′-cGAMP (positive control) with different concentrations or diluent (negative control); 5 μL of human STING 6His-tagged protein (negative control well was added to detection buffer); 10 μL of STING ligand d2 and Anti 6His-Tb3^+ premixed working solution.

[2] = target: T2, hSTING-H232 (Homo sapiens, UniProt Q86WV6); test: HTRF STING competition binding (cGAMP displacement) assay, hSTING-H232; details: for IC50: HTRF displacement assay, means from at least three repeated experiments; for binding to hSTING-H232 in displacement assay, in words: concentrations up to 100 μM
T2 construct: purchased Cisbio
Procedure: as §1, §2

[3] = target: T3, hSTING-AQ (Homo sapiens, UniProt Q86WV6, G230A/R293Q); test: HTRF STING competition binding (cGAMP displacement) assay, hSTING-AQ; details: for IC50: HTRF displacement assay, means from at least three repeated experiments; for binding to hSTING-AQ in displacement assay, in words: concentrations up to 100 μM
T3 construct: purchased Cisbio
Procedure: as §1, §2

[4] = target: T4, mSTING (Mus musculus, UniProt Q3TBT3); test: HTRF STING competition binding (cGAMP displacement) assay, mSTING; parameters: purchased Cisbio; details: for IC50: HTRF displacement assay, means from at least three repeated experiments; for binding to mSTING in displacement assay, in words: concentrations up to 100 μM
T4 sequence (Q3TBT3 1-378): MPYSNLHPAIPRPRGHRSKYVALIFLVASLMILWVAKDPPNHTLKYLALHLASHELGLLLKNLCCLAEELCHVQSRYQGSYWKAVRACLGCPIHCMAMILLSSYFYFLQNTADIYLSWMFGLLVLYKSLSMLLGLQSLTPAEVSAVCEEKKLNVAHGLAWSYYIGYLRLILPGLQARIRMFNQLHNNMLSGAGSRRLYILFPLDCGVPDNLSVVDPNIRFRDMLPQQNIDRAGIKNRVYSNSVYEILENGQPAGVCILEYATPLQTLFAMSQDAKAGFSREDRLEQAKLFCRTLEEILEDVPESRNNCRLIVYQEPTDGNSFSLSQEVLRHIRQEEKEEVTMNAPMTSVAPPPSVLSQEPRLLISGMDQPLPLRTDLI
Procedure: as §1, §2

[5] = system: 293T cells; test: CellTiter-Glo luminescent cell viability assay, 293T cells; details: 48 h
[6] = system: THP-1 cells; test: CellTiter-Glo luminescent cell viability assay, THP-1 cells; details: 48 h
[7] = system: STING-triggered NF-κB pathway; test: Inhibition of STING dual pathways, THP1-KI-hSTING-R232 cells, NF-κB (SEAP); details: THP1-hSTING-R232 cells stimulated with 2′,3′-cGAMP, 24 h; 11 20 µM, 27 33 µM, H151 2 µM
Text: (§3) After the THP-1 reporter cell line stimulation with 2′,3′-cGAMP, we added STING inhibitors with appropriate concentrations for inhibiting the inductions of I IFN and proinflammatory cytokine. […] In addition, to exclude the effect of cytotoxicity of the compounds on the inhibitory activity, we used the CellTiter-Glo kit to assay cellular activity.

[8] = system: STING-triggered IRF pathway; test: Inhibition of STING dual pathways, THP1-KI-hSTING-R232 cells, IRF (Lucia luciferase); details: THP1-hSTING-R232 cells stimulated with 2′,3′-cGAMP, 24 h; 11 20 µM, 27 33 µM, H151 2 µM
Text: as §3

[9] = target: hSTING-R232 (Homo sapiens, UniProt Q86WV6, H232R); test: Cellular assay for STING inhibitory activity, 293T hSTING-R232 cells stimulated with 2′,3′-cGAMP (SEAP); details: for inhibitory potency in human STING reporter cells, initial screen: compound at 100 μM
[10] = target: T4, mSTING; test: Cellular assay for STING inhibitory activity, 293T mSTING cells stimulated with 2′,3′-cGAMP (SEAP); details: for inhibitory potency in murine STING reporter cells, initial screen: compound at 100 μM
[11] = target: T4, mSTING; parameters: purchased Cisbio; method as in PMID 31927317; details: STING reporter cells, agonist activity; cited from earlier work
[12] = system: hSTING; parameters: method as in PMID 31927317; details: STING competition binding kits; cited from earlier work
[13] = system: hSTING; parameters: method as in PMID 31927317; details: STING reporter cells, agonist activity; cited from earlier work

Chain of hSTING-R232 (Q86WV6 whole entry H232R): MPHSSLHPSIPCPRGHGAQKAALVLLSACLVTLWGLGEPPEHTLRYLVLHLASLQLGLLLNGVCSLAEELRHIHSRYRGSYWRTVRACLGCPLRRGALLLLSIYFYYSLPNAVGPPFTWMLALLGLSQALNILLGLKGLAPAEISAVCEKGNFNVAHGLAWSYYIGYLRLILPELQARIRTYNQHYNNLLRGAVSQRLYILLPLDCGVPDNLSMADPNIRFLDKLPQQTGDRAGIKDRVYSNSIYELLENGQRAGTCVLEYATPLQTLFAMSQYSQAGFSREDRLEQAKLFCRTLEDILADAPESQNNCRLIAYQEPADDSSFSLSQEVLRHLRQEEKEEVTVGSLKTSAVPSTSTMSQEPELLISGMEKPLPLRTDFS
T1 sequence (Q86WV6 whole entry H232R): as above
T2 sequence (Q86WV6 135-379 limits assumed): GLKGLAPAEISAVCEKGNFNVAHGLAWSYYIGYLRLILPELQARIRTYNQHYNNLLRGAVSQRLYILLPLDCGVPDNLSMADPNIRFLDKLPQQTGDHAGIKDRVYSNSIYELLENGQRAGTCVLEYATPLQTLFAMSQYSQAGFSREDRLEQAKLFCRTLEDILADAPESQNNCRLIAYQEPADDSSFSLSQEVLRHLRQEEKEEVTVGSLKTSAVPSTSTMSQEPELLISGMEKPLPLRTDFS
T3 sequence (Q86WV6 whole entry G230A/R293Q): as the sequence (Q86WV6 whole entry H232R) above, with G230A, R232H, R293Q counted along it

Compound	IC50 [1]	binding to hSTING-WT in displacement assay, in words [1]	IC50 [2]	binding to hSTING-H232 in displacement assay, in words [2]	IC50 [3]	binding to hSTING-AQ in displacement assay, in words [3]	IC50 [4]	other results
COc1cc2c(=O)c3cccc(C(=O)O)c3[nH]c2c(C)c1C [Compound 33, 7-methoxy-5,6-dimethyl-9-oxo-9,10-dihydroacridine-4-carboxylic acid]	> 100 µM	inactive	> 100 µM	inactive	> 100 µM	inactive	> 100 µM	binding to mSTING in displacement assay, in words [4]: inactive
CCc1ccc(NC(=O)Nc2c[nH]c3ccccc23)cc1 [Compound H151, reference compound]								cytotoxicity, cell viability 293T cells ([5]; at 10 μM): significant cytotoxicity; cytotoxicity, cell viability THP-1 cells ([6]; at 10 μM): significant cytotoxicity
COc1cc2c(=O)c3ccccc3[nH]c2c(C)c1C [Compound 9, 2-methoxy-3,4-dimethylacridin-9(10H)-one]	> 100 µM	cannot bind to STING	> 100 µM	cannot bind to STING	> 100 µM	cannot bind to STING	> 100 µM	binding to mSTING in displacement assay, in words [4]: cannot bind to STING
COc1cc(C(=O)O)c2[nH]c3c(C)c(C)c(OC)cc3c(=O)c2c1 [Compound 34, 2,7-dimethoxy-5,6-dimethyl-9-oxo-9,10-dihydroacridine-4-carboxylic acid]	> 100 µM	inactive	> 100 µM	inactive	> 100 µM	inactive	> 100 µM	binding to mSTING in displacement assay, in words [4]: inactive
COc1cc2c(=O)c3cc(F)cc(CC(=O)O)c3[nH]c2c(C)c1C [Compound 37]	> 100 µM		> 100 µM		> 100 µM		> 100 µM	
COc1cc2c(=O)c3cc(Cl)cc(CC(=O)O)c3[nH]c2c(C)c1C [Compound 38]	> 100 µM		> 100 µM		> 100 µM		> 100 µM	
COc1cc2c(=O)c3c(F)ccc4c3n(c2c(C)c1C)C(=O)C4 [Compound 27, 5-fluoro-8-methoxy-9,10-dimethyl-6H-pyrrolo[3,2,1-de]acridine-1,6(2H)-dione]	7.67 µM	single-digit micromolar activity	6.57 µM	single-digit micromolar activity	5.82 µM	single-digit micromolar activity	3.88 µM	inhibition of STING-triggered NF-κB pathway activation [7]: significantly inhibited; inhibition of STING-triggered IRF pathway activation [8]: significantly inhibited; binding to mSTING in displacement assay, in words [4]: single-digit micromolar activity; IC50 [9]: 38.8 µM; inhibitory potency in human STING reporter cells, initial screen [9]: excellent inhibition; IC50 [10]: 30.8 µM; inhibitory potency in murine STING reporter cells, initial screen [10]: excellent inhibition
COc1cc2c(=O)c3c(Cl)ccc4c3n(c2c(C)c1C)C(=O)C4 [Compound 25, 5-chloro-8-methoxy-9,10-dimethyl-6H-pyrrolo [3,2,1-de]acridine-1,6(2H)-dione]	78.1 µM		37.7 µM		48 µM		32.4 µM	
COc1cc2c(=O)c3c(Cl)ccc(CC(=O)O)c3[nH]c2c(C)c1C [Compound 36]	> 100 µM		> 100 µM		> 100 µM		> 100 µM	
COc1cc2c3c(c1)c(=O)c1cc(OC)c(C)c(C)c1n3C(=O)C2 [Compound 29, 4,8-dimethoxy-9,10-dimethyl-6H-pyrrolo[3,2,1-de]acridine-1,6(2H)-dione]	> 100 µM		82.8 µM		70.5 µM		> 100 µM	
COc1cc2c(=O)c3c(F)ccc(CC(=O)O)c3[nH]c2c(C)c1C [Compound 35]	> 100 µM		> 100 µM		> 100 µM		> 100 µM	
COc1cc2c(=O)c3cccc4c3n(c2c(C)c1C)C(=O)C4 [Compound 3]	18.3 µM	IC50 values at the micromolar level	36 µM	IC50 values at the micromolar level	58.2 µM	IC50 values at the micromolar level	33.3 µM	EC50 [11]: 66.5 ± 10.5 µM; IC50 [12]: 10.3 µM; inhibitory potency in human STING reporter cells, initial screen [9]: not being as effective; inhibitory potency in murine STING reporter cells, initial screen [10]: not being as effective; EC50 [13]: 154 ± 9.6 µM
COc1cc2c(=O)c3cc(Cl)cc4c3n(c2c(C)c1C)C(=O)C4 [Compound 26, 4-chloro-8-methoxy-9,10-dimethyl-6H-pyrrolo[3,2,1-de]acridine-1,6(2H)-dione]	> 100 µM		79.1 µM		65.1 µM		51.5 µM	
CCOC(=O)Cn1c2ccccc2c(=O)c2cc(OC)c(C)c(C)c21 [Compound 10, Ethyl 2-(2-methoxy-3,4-dimethyl-9-oxoacridin-10 (9H)-yl)acetate]	> 100 µM	cannot bind to STING	> 100 µM	cannot bind to STING	> 100 µM	cannot bind to STING	> 100 µM	binding to mSTING in displacement assay, in words [4]: cannot bind to STING
COc1cc2c(=O)c3cc(F)cc4c3n(c2c(C)c1C)C(=O)C4 [Compound 28, 4-fluoro-8-methoxy-9,10-dimethyl-6H-pyrrolo[3,2,1-de]acridine-1,6(2H)-dione]	88.1 µM		62.4 µM		55.2 µM		61 µM	
COc1cc2c(=O)c3cccc(CC(=O)O)c3[nH]c2c(C)c1C [Compound 4]	21.1 µM	IC50 values at the micromolar level	43.8 µM	IC50 values at the micromolar level	47.6 µM	IC50 values at the micromolar level	28.2 µM	EC50 [11]: 72.3 ± 11.1 µM; IC50 [12]: 13.1 µM; inhibitory potency in human STING reporter cells, initial screen [9]: not being as effective; inhibitory potency in murine STING reporter cells, initial screen [10]: not being as effective; EC50 [13]: 135 ± 12.1 µM
COc1cc2c(=O)c3ccccc3n(CC(=O)O)c2c(C)c1C [Compound 11, 2-(2-methoxy-3,4-dimethyl-9-oxoacridin-10(9H)-yl)acetic acid]	< 20 µM and 5.81 µM		< 20 µM and 12.1 µM		< 20 µM and 14.3 µM		< 20 µM and 19 µM	inhibition of STING-triggered NF-κB pathway activation [7]: significantly inhibited; cytotoxicity, cell viability 293T cells ([5]; 5 to 100 μM): no evidence of cytotoxicity; inhibition of STING-triggered IRF pathway activation [8]: significantly inhibited; IC50 [9]: 19.9 µM; inhibitory potency in human STING reporter cells, initial screen [9]: excellent inhibition; IC50 [10]: 15.5 µM; inhibitory potency in murine STING reporter cells, initial screen [10]: excellent inhibition; cytotoxicity, cell viability THP-1 cells ([6]; 5 to 100 μM): no evidence of cytotoxicity
